Legend:
[1] = system: A431 cells / TMD8 cells; assay: Proliferation inhibitory activity against cell lines expressing BTK and EGFR, and selectivity; format: cell-based, human
Source text: TMD8 cells, which are of a diffuse large B-cell lymphoma cell line expressing BTK, were suspended in RPMI1640 medium (manufactured by Life Technologies Corp.) containing 10% fetal bovine serum. A431 cells, which are of an EGFR-overexpressing, highly activated human epidermoid carcinoma cell line, were suspended in DMEM, high glucose medium (manufactured by Life Technologies Corp.) containing 10% fetal bovine serum. The cell suspensions were inoculated into each well of 384-well flat-bottomed microplates, and the cells were cultured for 1 day at 37° C. in an incubator containing 5% carbon dioxide gas. […] A DMSO solution of the test compounds was diluted with the medium used in the suspension of the each cell, and this was added to each of the wells of the cell culture plates such that the final concentration of DMSO would be 0.2%. The cells were further cultured for 3 days at 37° C. in an incubator containing 5% carbon dioxide gas. […] Proliferation inhibition ratio (%)=(C−T)/(C−C0)×100
C0: Luminescence intensity of a well measured before the addition of the test compound

[2] = Moisture absorption/desorption test; format: physicochemical; conditions: for Weight change ratio, Adsorption / Weight change ratio, Desorption: 25° C.
Procedure: Moisture absorption/desorption test was carried out with respect to Compound A, monofumarate of Compound A, hemifumarate of Compound A, hemitartrate of Compound A and monophosphate of Compound A, to research the presence or absence of the characteristic of channel hydrate.
In the moisture absorption/desorption test, measurements were carried out according to the following conditions.
A dedicated quartz holder was filled with about from 5 to 10 mg of sample, and a weight of the sample at each humidity was measured and recorded in a continuous manner under the following conditions. Handling of the devices including data processing was based on the method and the process indicated in each device.
Device: VTI SA+ (manufactured by TA Instruments Inc.)
Drying temperature: 60° C.
Temperature rising speed: 1° C./min.
Equilibrium in drying: It is confirmed that no reduction of 0.01 wt % occurs in 5 minutes, in a range not exceeding 300 minutes.
Temperature for measurement: 25° C.
Equilibrium in humidification: It is confirmed that no increase of 0.01 wt % occurs in 5 minutes, in a range not exceeding 120 minutes.
Relative humidity program: Raised by 5% RH from 5% RH to 95% RH, and lowered by 5% RH from 95% RH to 5% RH.

[3] = system: recombinant human EGFR protein / BTK; assay: BTK inhibition selectivity compared with EGFR kinase inhibitory activity (in vitro); format: biochemical
Procedure: 1) Measurement of BTK Inhibitory Activity
2) Measurement of EGFR Inhibitory Activity
Therefore, a biotinated peptide (biotin-[…]) was produced by referring to the amino acid sequence of the peptide. The purified recombinant human EGFR protein used in the test was purchased from Carna Biosciences, Inc.
The reaction was terminated by adding EDTA thereto so as to obtain a final concentration of 24 mM. Subsequently, a detection liquid containing Eu-labeled anti-phosphotyrosine antibody PT66 (PerkinElmer, Inc.) and […] APC-SA (PerkinElmer, Inc.) was added thereto, and the system was left to stand for 2 hours or longer at room temperature. […] 3) BTK Inhibition Selectivity

[4] = Blood concentration measurement test after oral administration; conditions: mice
Procedure: These administration solutions were orally administered to mice (Balb/cA) which had been bred under a feeding condition, at a dose of 10 mL per 1 kg body weight, with a sonde for oral administration. After the administration, the mice were returned to a cage for mice and conditions were checked. Inside the cage was provided with a condition where water and food were accessible ad libitum. After 0.25, 0.5, 1, 2, 4 and 6 hours from the administration, the mice were anesthetized with isoflurane, and 60 μL of blood was collected from orbital sinus with a capillary blood collection tube.
The collected blood was ice cooled, and blood plasma was separated by a centrifugal operation. The mice after the blood collection was returned to an animal breeding cage, and conditions after recovery from the anesthesia were checked. When the last blood collection was finished, the mice were euthanized by cervical dislocation, after a level check of isoflurane anesthesia.
AUC0-6 hr, Cmax and Tmax were calculated by linear-log trapezoid method with Phoenix WinNonlin (v6.3.0) which is a software manufactured by Pharsight Corporation, from a concentration of Compound A in each blood plasma measured by MRM method with LC-MS/MS.

[5] = system: mouse collagen-induced arthritis model; assay: Mice collagen-induced arthritis model; format: in vivo, DBA/1 mice; conditions: 0.381 mg/kg, oral, 1 time per day, 17 days; FIG. 11
Procedure: The test was carried out in accordance with the method described in Non-Patent Literature (Brand D D, et al., Nat Protoc. 2007; 2, 1269-1275, Xu D. et al., JPET, 2012 April; 341 (1):90-103). Seven-week-old male/DBA/1 mice (CHARLES RIVER LABORATORIES JAPAN, INC.) were intracutaneously injected in the dorsum with 100 μL/body of an equal amount-mixed solution (emulsion) of 4 mg/mL of bovine type 2 collagen solution (Collagen Research Center) and Complete Freund's Adjuvant (DIFCO Inc.) (initial immunization). After 21 days therefrom, the mice were intracutaneously injected in the chine with 100 μL/body of an equal amount-mixed solution (emulsion) of 4 mg/mL of bovine type 2 collagen solution (Collagen Research Center) and Complete Freund's Adjuvant (DIFCO) to provide an additional immunization. The oral administration of 1 time per day was continued for 17 days setting the administration initiation day (day 0) as the eighth day from the additional immunization. Symptoms of arthritis in day 0, day 3, day 7, day 10, day 14 and day 17 were scored macroscopically (0: No change, 1: Swelling of a finger, 2: Swelling of two fingers or more, 3: Swelling of instep, 4: Swelling of all fingers extending wrist/ankle), and a total in four limbs was obtained as a point of individual body (maximum 16 points).

[6] = Solid stability test (severe test), 60° C.; format: physicochemical
Procedure: Solid stability was measured under the following conditions, with respect to monofumarate of Compound A, hemitartrate of Compound A and monophosphate of Compound A which were obtained in the Examples and the Reference Examples, when they were stored for 2 weeks or 4 weeks at 60° C.
Storage condition: 60° C. (Sealed)
Point of measurement: 2 weeks and 4 weeks
Storage amount: About 30 mg
Storage container: Brown glass container
Method of preparing sample solution: Sample was dissolved in 50% acetonitrile such that a concentration of the sample would be 0.4 mg/mL.
In the Table, A and B refer to percentages of the total mass of analogous substance of less than 0.1%, and 0.1% or more and less than 0.5%, respectively. Incidentally, the value marked with * was measured at 2 weeks and the others were measured at 4 weeks.

[7] = 50 mg/kg in terms of Compound A, 0.5% HPMC suspension, plasma Compound A

Weight change ratio, Adsorption ([2]; relative humidity 5%): 0.01%
Weight change ratio, Desorption ([2]; relative humidity 5%): 0.05%
Weight change ratio, Adsorption ([2]; relative humidity 20%): 0.14%
Weight change ratio, Desorption ([2]; relative humidity 20%): 0.17%
Weight change ratio, Adsorption ([2]; relative humidity 40%): 0.30%
Weight change ratio, Desorption ([2]; relative humidity 40%): 0.33%
Weight change ratio, Adsorption ([2]; relative humidity 60%): 0.37%
Weight change ratio, Desorption ([2]; relative humidity 60%): 0.41%
Weight change ratio, Adsorption ([2]; relative humidity 80%): 0.45%
Weight change ratio, Desorption ([2]; relative humidity 80%): 0.49%
Weight change ratio, Adsorption ([2]; relative humidity 95%): 0.60%
Weight change ratio, Desorption ([2]; relative humidity 95%): 0.60%
mass change (increase) ([2]; relative humidity of 95%): less than 1%
BTK inhibition selectivity against EGFR kinase relative to Comparative compound 1 ([3]; in vitro kinase): about 13 times
EGFR inhibitory activity IC50 value (nM)/BTK inhibitory activity IC50 value (nM) ([3]; selectivity ratio): 16.90
Cmax relative to that of Compound A ([4]; 50 mg/kg): about two fold
AUC0-6 hr [4, 7]: 7.33 µM·h
Cmax [4, 7]: 7.63 µM
Tmax [4, 7]: 15 min
total mass of analogous substance ([6]; 60° C. (Sealed), 4 weeks): A (less than 0.1%)
solid stability (in words) ([6]; 60° C., compared to hemitartrate or monophosphate): excellent solid stabilities
SMILES: C=CC(=O)N1CCC[C@@H](n2nc(C(=O)Nc3nc4ccccc4o3)c3c(N)ncnc32)C1.O=C(O)/C=C/C(=O)O [monofumarate of Compound A, (R)-1-(1-acryloylpiperidin-3-yl)-4-amino-N-(benzo[d]oxazol-2-yl)-1H-pyrazolo[3,4-d]pyrimidine-3-carboxamide.monofumarate]
BTK inhibition selectivity in the cell proliferation inhibition ratio relative to Comparative compound 1 ([1]; A431/TMD8): about 65 times
A431 cell proliferation inhibition ratio/TMD8 cell proliferation inhibition ratio ([1]; GI50 based, 3 days culture, CELLTITER GLO): 7643
arthritis score [5]: lowered the arthritis score effectively

— US10280174B2, “Salt of fused pyrimidine compound and crystal thereof” (TAIHO PHARMACEUTICAL CO., LTD., priority 2015, dated 2019)
